Measured values taken from paper PMC5218480 (PLoS ONE, 2017).

System: MV-4-11 cells
Experiment: Gene expression microarray analysis (Affymetrix PrimeView) and GSEA
Format: cell-based, human
Set-up: RFU PODN (11730768_x_at) / Fold change /veh PODN (11730768_x_at) / RFU LINC00158 (11744669_a_at) / Fold change /veh LINC00158 (11744669_a_at) / RFU DUSP10 (11751237_a_at) / Fold change /veh DUSP10 (11751237_a_at) / RFU ID3 (11757404_x_at) / Fold change /veh ID3 (11757404_x_at) / RFU PLEKHG5 (11737974_s_at) / Fold change /veh PLEKHG5 (11737974_s_at) / RFU LRRC4B (11730491_at) / Fold change /veh LRRC4B (11730491_at) / RFU GIMAP4 (11747438_a_at) / Fold change /veh GIMAP4 (11747438_a_at) / RFU KRT8 (11758183_x_at) / Fold change /veh KRT8 (11758183_x_at) / RFU CNN1 (11734310_a_at) / Fold change /veh CNN1 (11734310_a_at) / RFU VPS37D (11726825_at) / Fold change /veh VPS37D (11726825_at) / RFU C10orf10 (11716522_x_at) / Fold change /veh C10orf10 (11716522_x_at) / RFU KIR2DL2 /// KIR2DL4 /// KIR2DL5A /// KIR2DL5B /// KIR2DS1 /// KIR2DS2 /// KIR2DS3 /// KIR2DS4 /// KIR3DL3 /// KIR3DL3 /// KIR3DS1 (11738374_at) / Fold change /veh KIR2DL2 /// KIR2DL4 /// KIR2DL5A /// KIR2DL5B /// KIR2DS1 /// KIR2DS2 /// KIR2DS3 /// KIR2DS4 /// KIR3DL3 /// KIR3DL3 /// KIR3DS1 (11738374_at) / RFU C1QL1 (11718748_at) / Fold change /veh C1QL1 (11718748_at) / RFU TMPRSS4 (11747572_a_at) / Fold change /veh TMPRSS4 (11747572_a_at) / RFU HAMP (11756126_x_at) / Fold change /veh HAMP (11756126_x_at) / RFU RNFT2 (11725882_a_at) / Fold change /veh RNFT2 (11725882_a_at) / RFU NR4A2 (11747474_a_at) / Fold change /veh NR4A2 (11747474_a_at) / RFU ABCC12 (11746883_a_at) / Fold change /veh ABCC12 (11746883_a_at) / RFU TMEM136 (11760407_x_at) / Fold change /veh TMEM136 (11760407_x_at) / RFU CLDN22 /// WWC2 (11732394_at) / Fold change /veh CLDN22 /// WWC2 (11732394_at) / RFU HLA-DPB1 (11760878_x_at) / Fold change /veh HLA-DPB1 (11760878_x_at) / RFU SPINT1 (11716480_a_at) / Fold change /veh SPINT1 (11716480_a_at) / RFU GAP43 (11754022_s_at) / Fold change /veh GAP43 (11754022_s_at) / RFU A4GNT (11735810_at) / Fold change /veh A4GNT (11735810_at) / RFU PRB3 (11715151_x_at) / Fold change /veh PRB3 (11715151_x_at) / RFU TUBB4B (11761932_at) / Fold change /veh TUBB4B (11761932_at) / RFU CAPN14 (11732068_a_at) / Fold change /veh CAPN14 (11732068_a_at) / RFU TMCC2 (11721928_a_at) / Fold change /veh TMCC2 (11721928_a_at) / RFU IRGQ (11745062_a_at) / Fold change /veh IRGQ (11745062_a_at) / RFU FAM174B (11720279_a_at) / Fold change /veh FAM174B (11720279_a_at) / RFU TMPRSS4 (11748680_a_at) / Fold change /veh TMPRSS4 (11748680_a_at) / RFU FAM212B (11763350_a_at) / Fold change /veh FAM212B (11763350_a_at) / RFU PLEKHG5 (11743358_a_at) / Fold change /veh PLEKHG5 (11743358_a_at) / RFU ZSCAN30 (11745921_a_at) / Fold change /veh ZSCAN30 (11745921_a_at) / RFU CMKLR1 (11741424_a_at) / Fold change /veh CMKLR1 (11741424_a_at) / RFU LOC101060620 /// MAPK8IP1 (11723275_at) / Fold change /veh LOC101060620 /// MAPK8IP1 (11723275_at) / RFU SPTSSB (11747773_x_at) / Fold change /veh SPTSSB (11747773_x_at) / RFU PRSS12 (11739890_at) / Fold change /veh PRSS12 (11739890_at) / RFU BIN1 (11741810_x_at) / Fold change /veh BIN1 (11741810_x_at) / RFU WNT11 (11732464_a_at) / Fold change /veh WNT11 (11732464_a_at) / RFU C10orf10 (11716521_a_at) / Fold change /veh C10orf10 (11716521_a_at) / RFU C5orf56 (11738089_at) / Fold change /veh C5orf56 (11738089_at) / RFU CYB561 (11721691_x_at) / Fold change /veh CYB561 (11721691_x_at) / RFU ANKRD19P (11752326_a_at) / Fold change /veh ANKRD19P (11752326_a_at) / RFU OR2T12 /// OR2T33 /// OR2T8 (11738714_s_at) / Fold change /veh OR2T12 /// OR2T33 /// OR2T8 (11738714_s_at) / RFU VCAN (11748164_a_at) / Fold change /veh VCAN (11748164_a_at) / RFU JSRP1 (11732532_at) / Fold change /veh JSRP1 (11732532_at) / RFU KRTAP10-11 (11738290_x_at) / Fold change /veh KRTAP10-11 (11738290_x_at) / RFU MYO3A (11730013_a_at) / Fold change /veh MYO3A (11730013_a_at) / RFU EBF3 (11725865_a_at) / Fold change /veh EBF3 (11725865_a_at) / RFU CAMK2N1 (11719241_x_at) / Fold change /veh CAMK2N1 (11719241_x_at) / RFU C5orf56 (11738088_a_at) / Fold change /veh C5orf56 (11738088_a_at) / RFU OLFML3 (11715873_a_at) / Fold change /veh OLFML3 (11715873_a_at) / RFU LOC100653217 /// NTM (11731650_a_at) / Fold change /veh LOC100653217 /// NTM (11731650_a_at) / RFU MAPK11 (11762145_a_at) / Fold change /veh MAPK11 (11762145_a_at) / RFU FIZ1 (11724087_x_at) / Fold change /veh FIZ1 (11724087_x_at) / RFU OASL (11726364_x_at) / Fold change /veh OASL (11726364_x_at) / RFU SOX15 (11748057_x_at) / Fold change /veh SOX15 (11748057_x_at) / RFU CD79A (11719716_a_at) / Fold change /veh CD79A (11719716_a_at) / RFU HIST1H1D (11736915_at) / Fold change /veh HIST1H1D (11736915_at) / RFU CASKIN2 (11723855_a_at) / Fold change /veh CASKIN2 (11723855_a_at) / RFU LOC730098 (11760151_x_at) / Fold change /veh LOC730098 (11760151_x_at) / RFU OR4N2 (11742367_at) / Fold change /veh OR4N2 (11742367_at) / RFU PRRT2 (11749266_a_at) / Fold change /veh PRRT2 (11749266_a_at) / RFU SNX32 (11753110_a_at) / Fold change /veh SNX32 (11753110_a_at) / RFU CDHR5 (11726645_a_at) / Fold change /veh CDHR5 (11726645_a_at) / RFU RCAN1 (11760418_a_at) / Fold change /veh RCAN1 (11760418_a_at) / RFU FAM167A (11723789_a_at) / Fold change /veh FAM167A (11723789_a_at) / RFU FAM26E (11764081_at) / Fold change /veh FAM26E (11764081_at) / RFU ISYNA1 (11749810_s_at) / Fold change /veh ISYNA1 (11749810_s_at) / RFU ACY1 (11761880_at) / Fold change /veh ACY1 (11761880_at) / RFU 11764098_at / Fold change /veh 11764098_at / RFU SAMD14 (11745864_x_at) / Fold change /veh SAMD14 (11745864_x_at) / RFU NPB (11741838_a_at) / Fold change /veh NPB (11741838_a_at) / RFU TMPRSS6 (11731388_a_at) / Fold change /veh TMPRSS6 (11731388_a_at) / RFU KRTAP10-2 (11738614_at) / Fold change /veh KRTAP10-2 (11738614_at) / RFU ARHGAP8 /// PRR5-ARHGAP8 (11727945_x_at) / Fold change /veh ARHGAP8 /// PRR5-ARHGAP8 (11727945_x_at) / RFU KRTAP5-7 /// NADSYN1 (11734609_at) / Fold change /veh KRTAP5-7 /// NADSYN1 (11734609_at) / RFU RASL12 (11751679_a_at) / Fold change /veh RASL12 (11751679_a_at) / RFU CDKN2B (11736163_a_at) / Fold change /veh CDKN2B (11736163_a_at) / RFU PRF1 (11729649_at) / Fold change /veh PRF1 (11729649_at) / RFU, ZNF638 /// ZNF638-IT1 / Fold change vs veh, ZNF638 /// ZNF638-IT1 / RFU, PANK3 / Fold change vs veh, PANK3 / RFU, SH3YL1 / Fold change vs veh, SH3YL1 / RFU, ZEB2 / Fold change vs veh, ZEB2 / RFU, NRIP1 / Fold change vs veh, NRIP1 / RFU, PTTG1IP / Fold change vs veh, PTTG1IP / RFU, CAPN2 / Fold change vs veh, CAPN2 / RFU, MED14 / Fold change vs veh, MED14 / RFU, SNORA58 / Fold change vs veh, SNORA58 / RFU, C1orf63 / Fold change vs veh, C1orf63 / RFU, LRRFIP1 / Fold change vs veh, LRRFIP1 / RFU, NDUFAF7 / Fold change vs veh, NDUFAF7 / RFU, SLC12A2 / Fold change vs veh, SLC12A2 / RFU, IBTK / Fold change vs veh, IBTK / RFU, ESF1 / Fold change vs veh, ESF1 / Fold change vs veh, TMEM50B / RFU, TAOK1 / Fold change vs veh, TAOK1 / RFU, ACBD3 / Fold change vs veh, ACBD3 / RFU, TMA16 / Fold change vs veh, TMA16 / RFU, RWDD3 / Fold change vs veh, RWDD3 / RFU, BCAT1 / Fold change vs veh, BCAT1 / RFU, EDEM3 / Fold change vs veh, EDEM3 / RFU, TMEM33 / Fold change vs veh, TMEM33 / RFU, WDR75 / Fold change vs veh, WDR75 / RFU, AHCTF1 / Fold change vs veh, AHCTF1 / RFU, TFRC / Fold change vs veh, TFRC / RFU, ZDHHC17 / Fold change vs veh, ZDHHC17 / RFU, NOM1 / Fold change vs veh, NOM1 / RFU, ARL8B / Fold change vs veh, ARL8B / RFU, ZBTB11 / Fold change vs veh, ZBTB11 / RFU, TAMM41 / Fold change vs veh, TAMM41 / RFU, KIAA1704 /// LOC100996395 / Fold change vs veh, KIAA1704 /// LOC100996395 / RFU, ING1 / Fold change vs veh, ING1 / RFU, TRMT61B / Fold change vs veh, TRMT61B / RFU, FUBP3 / Fold change vs veh, FUBP3 / RFU, TP53 / Fold change vs veh, TP53 / RFU, TNKS2 / Fold change vs veh, TNKS2 / RFU, ZFP14 / Fold change vs veh, ZFP14 / RFU, ACTR2 / Fold change vs veh, ACTR2 / RFU, PPP3R1 / Fold change vs veh, PPP3R1 / RFU, PIK3R1 / Fold change vs veh, PIK3R1 / RFU, HNRNPA1 / Fold change vs veh, HNRNPA1 / RFU, RNF170 / Fold change vs veh, RNF170 / RFU, ZNF28 / Fold change vs veh, ZNF28 / RFU, RNGTT / Fold change vs veh, RNGTT / RFU, OGT / Fold change vs veh, OGT / RFU, BRD1 / Fold change vs veh, BRD1 / RFU, MARS / Fold change vs veh, MARS / RFU, ZNF655 / Fold change vs veh, ZNF655 / RFU, FAHD1 / Fold change vs veh, FAHD1 / RFU, BDP1 / Fold change vs veh, BDP1 / RFU, LRRCC1 / Fold change vs veh, LRRCC1 / RFU, ARID1A / Fold change vs veh, ARID1A / RFU, ZNF146 / Fold change vs veh, ZNF146 / RFU, ZNF330 / Fold change vs veh, ZNF330 / RFU, GPN3 / Fold change vs veh, GPN3 / RFU, C9orf123 / Fold change vs veh, C9orf123 / RFU, N4BP2L2 / Fold change vs veh, N4BP2L2 / RFU, ARFIP1 / Fold change vs veh, ARFIP1 / RFU, FAM179B / Fold change vs veh, FAM179B / RFU, BCL10 / Fold change vs veh, BCL10 / RFU, UHRF1BP1L / Fold change vs veh, UHRF1BP1L / RFU, BET1 / Fold change vs veh, BET1 / RFU, CNOT2 / Fold change vs veh, CNOT2 / RFU, ZNF268 / Fold change vs veh, ZNF268 / Fold change vs veh, ZNF507 / RFU, DGCR2 / Fold change vs veh, DGCR2 / RFU, WDSUB1 / Fold change vs veh, WDSUB1 / Fold change vs veh, HSP90B1 /// MIR3652 / RFU, ADSS / Fold change vs veh, ADSS / RFU, GK / Fold change vs veh, GK / RFU, ZNF148 / Fold change vs veh, ZNF148 / RFU, TAF9 / Fold change vs veh, TAF9 / RFU, SLC1A5 / Fold change vs veh, SLC1A5 / RFU, SLMO2 / Fold change vs veh, SLMO2 / RFU, ABCC4 / Fold change vs veh, ABCC4 / RFU, LOC101060439 /// RAP1B / Fold change vs veh, LOC101060439 /// RAP1B / RFU, RFX7 / Fold change vs veh, RFX7 / RFU, GTPBP10 / Fold change vs veh, GTPBP10 / RFU, CNEP1R1 / Fold change vs veh, CNEP1R1 / RFU, BIVM-ERCC5 /// ERCC5 / Fold change vs veh, BIVM-ERCC5 /// ERCC5 / RFU, ILF3 / Fold change vs veh, ILF3 / RFU 11762660_at / Fold change /veh 11762660_at / RFU VCAN (11757783_s_at) / Fold change /veh VCAN (11757783_s_at) / RFU DDX43 (11728927_at) / Fold change /veh DDX43 (11728927_at) / RFU KRT8 (11758188_x_at) / Fold change /veh KRT8 (11758188_x_at) / RFU NKD1 (11759106_at) / Fold change /veh NKD1 (11759106_at) / RFU SRD5A1 (11742802_a_at) / Fold change /veh SRD5A1 (11742802_a_at) / RFU TPSAB1 /// TPSB2 (11721975_s_at) / Fold change /veh TPSAB1 /// TPSB2 (11721975_s_at) / RFU GSTM3 (11746129_a_at) / Fold change /veh GSTM3 (11746129_a_at) / RFU IL23R (11737362_x_at) / Fold change /veh IL23R (11737362_x_at) / RFU TMEM51 (11727254_a_at) / Fold change /veh TMEM51 (11727254_a_at) / RFU PIWIL2 (11732686_x_at) / Fold change /veh PIWIL2 (11732686_x_at) / RFU ORM1 (11744905_x_at) / Fold change /veh ORM1 (11744905_x_at) / RFU CCDC152 (11743942_at) / Fold change /veh CCDC152 (11743942_at) / RFU ECM1 (11717891_a_at) / Fold change /veh ECM1 (11717891_a_at) / RFU IL23R (11748794_a_at) / Fold change /veh IL23R (11748794_a_at) / RFU TNFAIP8L3 (11732012_x_at) / Fold change /veh TNFAIP8L3 (11732012_x_at) / RFU MBOAT4 (11741988_at) / Fold change /veh MBOAT4 (11741988_at) / RFU 11764193_at / Fold change /veh 11764193_at / RFU TMEM53 (11763286_at) / Fold change /veh TMEM53 (11763286_at) / RFU MAGEB2 (11727129_at) / Fold change /veh MAGEB2 (11727129_at) / RFU TMEM200A (11744735_a_at) / Fold change /veh TMEM200A (11744735_a_at) / RFU CCDC152 (11751479_a_at) / Fold change /veh CCDC152 (11751479_a_at) / RFU FAM211A (11726209_a_at) / Fold change /veh FAM211A (11726209_a_at) / RFU RGS16 (11746705_a_at) / Fold change /veh RGS16 (11746705_a_at) / RFU VCAN (11755009_s_at) / Fold change /veh VCAN (11755009_s_at) / RFU RHOB (11743442_s_at) / Fold change /veh RHOB (11743442_s_at) / RFU RGS16 (11720943_a_at) / Fold change /veh RGS16 (11720943_a_at) / RFU RGS16 (11720944_at) / Fold change /veh RGS16 (11720944_at) / RFU, VPS4B / Fold change vs veh, VPS4B / RFU, CREB1 / Fold change vs veh, CREB1 / RFU, DNAJC13 / Fold change vs veh, DNAJC13 / RFU, GNAQ / Fold change vs veh, GNAQ / RFU, CDK5R1 / Fold change vs veh, CDK5R1 / RFU, ZRANB3 / Fold change vs veh, ZRANB3 / RFU, CUL4A / Fold change vs veh, CUL4A / RFU, CCNY / Fold change vs veh, CCNY / RFU, UFL1 / Fold change vs veh, UFL1 / RFU, COG3 / Fold change vs veh, COG3 / RFU, DIAPH2 / Fold change vs veh, DIAPH2 / RFU, SKA2 / Fold change vs veh, SKA2 / RFU, AFF3 / Fold change vs veh, AFF3 / RFU, LMF1 / Fold change vs veh, LMF1 / RFU, IPO11 / Fold change vs veh, IPO11 / RFU, DFFB / Fold change vs veh, DFFB / RFU, FOXP1 / Fold change vs veh, FOXP1 / RFU, CARD8 / Fold change vs veh, CARD8 / RFU, STRN3 / Fold change vs veh, STRN3 / RFU, ADK / Fold change vs veh, ADK / RFU, RASSF2 / Fold change vs veh, RASSF2 / RFU, WIPF1 / Fold change vs veh, WIPF1 / RFU, LARP1B / Fold change vs veh, LARP1B / RFU, RASA1 / Fold change vs veh, RASA1 / RFU, RB1 / Fold change vs veh, RB1 / RFU, PPFIA1 / Fold change vs veh, PPFIA1 / RFU, MAT2A / Fold change vs veh, MAT2A / RFU, CCT5 / Fold change vs veh, CCT5 / RFU, WDR92 / Fold change vs veh, WDR92 / RFU, CUX1 / Fold change vs veh, CUX1 / RFU, TTC7A / Fold change vs veh, TTC7A / RFU, TMEM135 / Fold change vs veh, TMEM135 / RFU, DEPTOR / Fold change vs veh, DEPTOR / RFU, CPM / Fold change vs veh, CPM / RFU, DNAJB6 / Fold change vs veh, DNAJB6 / RFU, CACNA2D3 / Fold change vs veh, CACNA2D3 / RFU, DTX4 / Fold change vs veh, DTX4 / RFU, TFCP2 / Fold change vs veh, TFCP2 / RFU, GMCL1 /// GMCL1P1 / Fold change vs veh, GMCL1 /// GMCL1P1 / RFU, AEBP2 / Fold change vs veh, AEBP2 / RFU, SNHG1 /// SNORD22 /// SNORD25 /// SNORD26 /// SNORD27 /// SNORD28 /// SNORD29 /// SNORD31 / Fold change vs veh, SNHG1 /// SNORD22 /// SNORD25 /// SNORD26 /// SNORD27 /// SNORD28 /// SNORD29 /// SNORD31 / Fold change (Aza/veh), C12orf56 (ProbeSet 11735607_a_at) / Fold change (ACY-1035/veh), C12orf56 (ProbeSet 11735607_a_at) / Fold change (Aza/veh), FGFR1OP (ProbeSet 11751329_s_at) / Fold change (ACY-1035/veh), FGFR1OP (ProbeSet 11751329_s_at) / Fold change (Aza/veh), VPS36 (ProbeSet 11739960_a_at) / Fold change (ACY-1035/veh), VPS36 (ProbeSet 11739960_a_at) / RFU SYPL1 (11715823_x_at) / Fold change /veh SYPL1 (11715823_x_at) / RFU IGFBP7 (11715501_s_at) / Fold change /veh IGFBP7 (11715501_s_at) / RFU REEP3 (11722064_at) / Fold change /veh REEP3 (11722064_at) / RFU IGLL1 (11728026_x_at) / Fold change /veh IGLL1 (11728026_x_at): dose or concentration left out as unconfirmed
Settings: ProbeSet 11721969_s_at; LIST B

Compound: Nc1ccc(-c2cccs2)cc1NC(=O)c1ccc2c(c1)cc(C1CC1)n2CCN1CCOCC1 [ACY-1035]
- Fold change vs veh, BDP1: 0.84
